What was measured:
[1] = tested on: Actin5C tTa^(B, C, E) × tRe Msl-1^MPu(A, B); experiment: Single chromosome crosses at 25° C., adult progeny by sex; type: in vivo, Drosophila melanogaster
Protocol: (§1) In “single chromosome crosses” at 25° C., ten to fifteen virgin females homozygous for the tTA construct and five to ten young males homozygous for the tRe construct were placed on food containing or lacking a tetracycline supplement.

[2] = tested on: Actin5C tTa^(B, C, E) × tRe Msl-2^Nopu (B, C, D); experiment: as above; type: in vivo, Drosophila melanogaster
Protocol: as §1

[3] = tested on: Actin5C tTa^(B, C, E) × tRe Ras64B^V12(B, C); experiment: as above; type: in vivo, Drosophila melanogaster
Protocol: as §1

[4] = tested on: Hsp26 tTa^(A) × tRe MSl-1^Mpu(A, B,); experiment: as above; type: in vivo, Drosophila melanogaster
Protocol: as §1

[5] = tested on: Hsp26 tTa^(A) × tRe Ras64B^V12(B, C,); experiment: as above; type: in vivo, Drosophila melanogaster
Protocol: as §1

[6] = tested on: Stwl tTa^(A, B, C) × tRe Msl-1^Mpu(A, B); experiment: as above; type: in vivo, Drosophila melanogaster
Protocol: as §1

[7] = tested on: Stwl tTa^(A, B, C) × tRe Msl-2^Nopu(B, C, D); experiment: as above; type: in vivo, Drosophila melanogaster
Protocol: as §1

[8] = tested on: Stwl tTa^(A, B, C) × tRe Ras64B^V12(B, C); experiment: as above; type: in vivo, Drosophila melanogaster
Protocol: as §1

[9] = tested on: Sxlpe tTa^(A, B, C, F) × tRe Msl-1^Mpu(A, B); experiment: as above; type: in vivo, Drosophila melanogaster
Protocol: as §1

[10] = tested on: Sxlpe tTa^(A, B, C, F) × tRe Msl-2^Nopu(B, C, D); experiment: as above; type: in vivo, Drosophila melanogaster
Protocol: as §1

[11] = tested on: Sxlpe tTa^(A, B, C, F) × tRe Ras64B^V12(B, C); experiment: as above; type: in vivo, Drosophila melanogaster
Protocol: as §1

[12] = tested on: Yp3 tTa^(A) × tRe Msl-1^Mpu(A, B,); experiment: as above; type: in vivo, Drosophila melanogaster
Protocol: as §1

[13] = tested on: Yp3 tTa^(A) × tRe Msl-2^Nopu(A, B,); experiment: as above; type: in vivo, Drosophila melanogaster
Protocol: as §1

[14] = tested on: Yp3 tTa^(A) × tRe Ras64B^V12(B, C,); experiment: as above; type: in vivo, Drosophila melanogaster
Protocol: as §1

[15] = tested on: (Female) Sxlp^e tTa^(A) × tRe lacZ^(III) (Male); experiment: Reporter crosses at 25° C., embryos stained for lacZ; type: in vivo, Drosophila melanogaster
Source text: As with “single chromosome crosses”, ten to fifteen virgin females homozygous for the tTA construct and five to ten young males homozygous for the tRe construct were placed on food containing or lacking a tetracycline supplement.

[16] = tested on: (Male) Sxlp^e tTa^(A) × tRe lacZ^(III) (Female); experiment: as above
[17] = tested on: Hsp26 tTa^(A) × tRe Msl-2^Nopu(A, B,); experiment: Single chromosome crosses at 25° C., adult progeny by sex

## CN(C)[C@@H]1C(O)=C(C(N)=O)C(=O)[C@@]2(O)C(O)=C3C(=O)c4c(O)cccc4[C@@](C)(O)[C@H]3C[C@@H]12 [Tetracycline, tetracycline]
[1]; Tetracycline 0.1 μg/ml in food
  Female progeny Total: 412
  Male progeny Total: 402
[1]; Tetracycline 1 μg/ml in food
  Female progeny Total: 321
  Male progeny Total: 351
[1]; Tetracycline 5 μg/ml in food
  Female progeny Total: 386
  Male progeny Total: 401
[2]; Tetracycline 0.1 μg/ml in food
  Female progeny Total: 548
  Male progeny Total: 637
[2]; Tetracycline 1 μg/ml in food
  Female progeny Total: 590
  Male progeny Total: 549
[2]; Tetracycline 5 μg/ml in food
  Female progeny Total: 615
  Male progeny Total: 522
[3]; Tetracycline 0.1 μg/ml in food
  Female progeny Total: 361
  Male progeny Total: 372
[3]; Tetracycline 1 μg/ml in food
  Female progeny Total: 427
  Male progeny Total: 383
[3]; Tetracycline 5 μg/ml in food
  Female progeny Total: 375
  Male progeny Total: 400
[4]; Tetracycline 0.1 μg/ml in food
  Female progeny Total: 328
  Male progeny Total: 368
[4]; Tetracycline 1 μg/ml in food
  Female progeny Total: 310
  Male progeny Total: 343
[4]; Tetracycline 5 μg/ml in food
  Female progeny Total: 313
  Male progeny Total: 347
[5]; Tetracycline 0.1 μg/ml in food
  Female progeny Total: 235
  Male progeny Total: 210
[5]; Tetracycline 1 μg/ml in food
  Female progeny Total: 199
  Male progeny Total: 274
[5]; Tetracycline 5 μg/ml in food
  Female progeny Total: 156
  Male progeny Total: 154
[6]; Tetracycline 0.1 μg/ml in food
  Female progeny Total: 211
  Male progeny Total: 336
[6]; Tetracycline 1 μg/ml in food
  Female progeny Total: 236
  Male progeny Total: 257
[6]; Tetracycline 5 μg/ml in food
  Female progeny Total: 223
  Male progeny Total: 291
[7]; Tetracycline 0.1 μg/ml in food
  Female progeny Total: 436
  Male progeny Total: 491
[7]; Tetracycline 1 μg/ml in food
  Female progeny Total: 439
  Male progeny Total: 490
[7]; Tetracycline 5 μg/ml in food
  Female progeny Total: 434
  Male progeny Total: 481
[8]; Tetracycline 0.1 μg/ml in food
  Female progeny Total: 317
  Male progeny Total: 315
[8]; Tetracycline 1 μg/ml in food
  Female progeny Total: 307
  Male progeny Total: 328
[8]; Tetracycline 5 μg/ml in food
  Female progeny Total: 271
  Male progeny Total: 335
[9]; Tetracycline 0.1 μg/ml in food
  Female progeny Total: 296
  Male progeny Total: 520
[9]; Tetracycline 1 μg/ml in food
  Female progeny Total: 326
  Male progeny Total: 473
[9]; Tetracycline 5 μg/ml in food
  Female progeny Total: 304
  Male progeny Total: 535
[10]; Tetracycline 0.1 μg/ml in food
  Female progeny Total: 647
  Male progeny Total: 562
[10]; Tetracycline 1 μg/ml in food
  Female progeny Total: 644
  Male progeny Total: 674
[10]; Tetracycline 5 μg/ml in food
  Female progeny Total: 615
  Male progeny Total: 742
[11]; Tetracycline 0.1 μg/ml in food
  Female progeny Total: 379
  Male progeny Total: 434
[11]; Tetracycline 1 μg/ml in food
  Female progeny Total: 386
  Male progeny Total: 389
[11]; Tetracycline 5 μg/ml in food
  Female progeny Total: 383
  Male progeny Total: 375
[12]; Tetracycline 0.1 μg/ml in food
  Female progeny Total: 336
  Male progeny Total: 379
[12]; Tetracycline 1 μg/ml in food
  Female progeny Total: 319
  Male progeny Total: 347
[12]; Tetracycline 5 μg/ml in food
  Female progeny Total: 307
  Male progeny Total: 348
[13]; Tetracycline 0.1 μg/ml in food
  Female progeny Total: 268
  Male progeny Total: 248
[13]; Tetracycline 1 μg/ml in food
  Female progeny Total: 324
  Male progeny Total: 362
[13]; Tetracycline 5 μg/ml in food
  Female progeny Total: 349
  Male progeny Total: 386
[14]; Tetracycline 0.1 μg/ml in food
  Female progeny Total: 322
  Male progeny Total: 352
[14]; Tetracycline 1 μg/ml in food
  Female progeny Total: 342
  Male progeny Total: 376
[14]; Tetracycline 5 μg/ml in food
  Female progeny Total: 316
  Male progeny Total: 354
[15]; Tetracycline 0.1 μg/ml in food
  LacZ negative Total: 709
  LacZ positive Total: 0
[15]; Tetracycline 1 μg/ml in food
  LacZ negative Total: 739
  LacZ positive Total: 0
[15]; Tetracycline 5 μg/ml in food
  LacZ negative Total: 651
  LacZ positive Total: 0
[16]; Tetracycline 0.1 μg/ml in food
  LacZ negative Total: 518
  LacZ positive Total: 0
[16]; Tetracycline 1 μg/ml in food
  LacZ negative Total: 707
  LacZ positive Total: 0
[16]; Tetracycline 5 μg/ml in food
  LacZ negative Total: 702
  LacZ positive Total: 0
[17]; Tetracycline 0.1 μg/ml in food
  Female progeny Total: 159
  Male progeny Total: 159
[17]; Tetracycline 1 μg/ml in food
  Female progeny Total: 135
  Male progeny Total: 122
[17]; Tetracycline 5 μg/ml in food
  Female progeny Total: 124
  Male progeny Total: 120

From patent publication US9125388B2, “Biological control” (Isis Innovation Limited, priority 1999, dated 2015)
